Measurements reported in patent US10111880B2, “Compounds for the treatment of diabetes and disease complications arising from same” (BEN-GURION UNIVERSITY OF THE NEGEV RESEARCH AND DEVELOPMENT …, priority 2013, dated 2018).

Key:
Assay type in all cases: in vivo, mouse
[1] = system: STZ-induced diabetic ICR mice; experiment: Blood glucose in STZ-induced diabetic ICR mice, long-term AGS treatment (5 months) with or without insulin; parameters: Blood Glucose At 101 day / Blood Glucose At 111 day: unit: mg/dL; details: for circulating glucose levels in diabetic animals: summary statement
Procedure: [0182]7 week-old female ICR mice were intra-peritoneally injected with STZ (40 mg\Kg) for 5 consecutive days. Non-diabetic mice received citrate buffer (pH 4.3, cold), which served as the vehicle controls for this study. AGS-500 (6 mg\Kg) was then administered subcutaneously every 2 days, for 5 months, on the first day after STZ administration. A further control group, where DMSO was administered in accordance with this regimen, was included. Mice were divided into the following 6 groups (10 mice per group except STZ only-5 mice): • STZ only • STZ+DMSO • Citrate+DMSO 1% every day • STZ+AGS-499 (6 mg/kg) injected every day S.C • STZ+AGS-500 (6 mg/kg) injected every day S.C • STZ+AGS-500 (6 mg/kg) injected every other day S.C Mice were weighed and blood glucose levels were measured using a free style glucometer. Food consumption was also measured 24 hours prior to STZ injection. The concentration of STZ to be injected was calculated. STZ at 40 mg/kg was injected ip for 5 consecutive days. AGS treatment was administered one day following the last STZ injection. The establishment of diabetes was validated by the assessment of blood glucose levels performed every 3 days (at the beginning) and once a week after 59 days from the initiation of the experiment. Blood glucose levels over 200 mg/dl (measured 3 consecutive times) indicated a diabetic state. At 80 days from the initiation of the experiments each group was divided to 2 subgroups which received either insulin (4 units/kg) or acetic acid (0.015%) both in HEPES buffer (pH 7.45) injected every 48 hours. Mice were sacrificed after 5 months from the initiation of the experiments. Blood glucose levels were monitored every 3 days. Ten weeks after the beginning of this study, each group was divided into 2 sub-groups, one of each also received insulin (4 U\Kg) every 2 days, except for the non-diabetic sub-groups. Acetic acid (1%) served as the vehicle control.

[2] = system: STZ-induced diabetic mice, kidney glomeruli; experiment: Kidney histopathology (PAS staining of glomeruli) in STZ diabetic mice; details: summary statement
Procedure: Mice were treated as described hereinabove. Following one month of treatment mice were sacrificed and histolopathological examination of the kidney was performed.
FIG. 9 plots the evaluation of a number of parameters assessed via the histopathology analysis.

[3] = system: insulin expressing beta islets; experiment: Immunofluorescence of pancreatic slices with anti-insulin antibody, insulin expressing beta islets in mice; details: for pancreatic beta cell mass: summary statement
Procedure: The light grey (originally red) stains insulin producing cells, and the darker grey (originally blue) is for DAPI staining. Density of insulin staining per area was measured using “Image J” software (D-E). The results are mean±S.E.; n=4. ***p<0.005. Magnification: ×10.

[4] = system: STZ-induced diabetic ICR mice; experiment: Glucose Tolerance Test (GTT) in STZ diabetic mice after 2 and 5 months; details: daily
Procedure: Glucose Tolerance Test: Animals were fasted for 12 hr with free access to water. Blood-glucose levels after fast were measured and then the animals received an i.p. injection of glucose (1.5 g/kg). Blood samples were taken at several intervals (for the duration of 2 hr), when glucose levels above 200 mg/dl at 2 hr confirmed a diagnosis of diabetes.
[…] Mice were subjected to 12 hours fast (with water) weighed, blood glucose level was measured and Glucose at 1.5 gr/kg in no more than 100 μl was injected IP. Blood glucose levels were measured at 10, 20, 30, 60, 90 and 120 min after glucose injection. glucose tolerance test.

[5] = system: STZ-induced diabetic ICR mice; experiment: Glucose tolerance test in STZ mice after short course (2 weeks) AGS treatment
Procedure: (§1) Eight weeks-old female ICR mice were injected intraperitoneally (IP) with Streptozotocin (STZ), at a dose of 40 mg/Kg, for 5 consecutive days. The following day and onward, mice were administered the AGS compounds (499 or 500, as indicated), at a dose of 6 mg/Kg, either subcutaneously or orally, every other day. Blood glucose levels were monitored daily.
(§2) After the establishment of diabetes (i.e. three consecutive blood glucose measurements of >200 mg/dL), mouse groups were further sub-divided into 2 sub-groups, one of each received insulin (gradual administration of 0.5-6 units/Kg, over a period of 2 weeks) subcutaneously, every other day. Blood glucose levels were monitored daily.
Glucose tolerance tests were also performed as follows: After two weeks mice were fasted for 12 hours, then injected with D-glucose (1.5 g/Kg, IP) and blood glucose levels were examined at 0, 10, 20, 30, 60, 90 and 120 minutes, in order to evaluate pancreatic function.

[6] = system: STZ-induced diabetic ICR mice; experiment: Blood glucose over time in STZ mice, short course (2 weeks) AGS treatment with or without insulin
Procedure: as §1, §2

`CC(c1cc(Br)c(O)c(Br)c1)(c1cc(Br)c(O)c(Br)c1)c1cc(Br)c(O)c(Br)c1` [formula XIV] was tested, and the “circulating glucose levels in diabetic animals” value [1] was “promoted reduction of circulating glucose levels”, the “kidney damage in diabetic subjects” value [2] was “reduced kidney damage” and the “pancreatic beta cell mass” value [3] was “increase of pancreatic beta cell mass”.
In the case of `CC(c1cc(CN2CCCC2)c(O)c(CN2CCCC2)c1)(c1cc(CN2CCCC2)c(O)c(CN2CCCC2)c1)c1cc(CN2CCCC2)c(O)c(CN2CCCC2)c1` [formula XI], the “circulating glucose levels in diabetic animals” value [1] is reported as “promoted reduction of circulating glucose levels”, the “kidney damage in diabetic subjects” value [2] is reported as “reduced kidney damage” and the “pancreatic beta cell mass” value [3] is reported as “increase of pancreatic beta cell mass”.
For `CCOCc1cc(C(C)(c2cc(COCC)c(O)c(COCC)c2)c2cc(COCC)c(O)c(COCC)c2)cc(COCC)c1O` [formula XIII], the “circulating glucose levels in diabetic animals” value [1] was “promoted reduction of circulating glucose levels”, the “kidney damage in diabetic subjects” value [2] was “reduced kidney damage” and the “pancreatic beta cell mass” value [3] was “increase of pancreatic beta cell mass”.
For `CCOCc1cc(C(C)(c2cc(COCC)c(O)c(COCC)c2)c2cc(COCC)c(O)c(COCC)c2)cc(COCC)c1O` [AGS-499, 1,1,1,1-tris (4-hydroxy-3,5-methylene ethoxy-phenyl)-ethane], the “Improvement (fold)” value ([4]; GTT after 2 months) was 3 fold, the “Fold of Improvement” value ([4]; GTT after 5 months) was 3 fold and the “Time needed for the Pancreas to cope glucose load after 5 months” value ([4]; GTT) was 30 min. The “Time needed for the Pancreas to cope with glucose load after 2 months” value ([4]; GTT) was 30 min, the “% reduction in blood glucose level” value ([1]; after 12 hours fast, day 142, 6 mg/kg s.c. daily) was 20% and the “Blood glucose level Average” value ([1]; after 12 hours fast, day 142, 6 mg/kg s.c. daily, in mg/dL (unit assumed)) was 317. The “% reduction In blood Glucose 101 day” value ([1]; no insulin, daily) was 29%, the “Blood Glucose At 101 day” value ([1]; no insulin, daily) was 500 and the “Blood Glucose At 111 day” value ([1]; no insulin, daily) was 500. For the same compound, the “reduction In blood Glucose 111 day” value ([1]; no insulin, daily) was 17%, the “Blood Glucose At 101 day” value ([1]; with insulin (4 units/kg every 48 hours), AGS daily) was 480 and the “% reduction In blood Glucose 101 day” value ([1]; with insulin, AGS daily) was 32%. The “Blood Glucose At 111 day” value ([1]; with insulin, AGS daily) was 400, the “reduction In blood Glucose 111 day” value ([1]; with insulin, AGS daily) was 34% and the “mean blood glucose levels in a glucose tolerance test” value ([5]; 6 mg/Kg subcutaneously or orally every other day, FIG. 11) was “reduced mean blood glucose levels”. For the same compound, the “effect of adding insulin on circulating glucose levels in a glucose tolerance test” value ([5]; AGS subcutaneously (AGS500 also orally), FIG. 12) was “adding insulin did not appreciably lower the circulating levels”, the “circulating glucose levels over time” value ([6]; 6 mg/Kg every other day, short course (2 weeks), FIG. 13-1) was “lowering circulating glucose levels significantly” and the “circulating glucose levels over time, combined with insulin therapy” value ([6]; short course, insulin 0.5-6 units/Kg, FIG. 13-2) was “synergistic contribution”. The “No of insulin expressing beta islets/mouse” value ([3]; no insulin, daily) was 4.3, the “increase in Insulin expressing Beta islets” value (“increase” below) ([3]; no insulin, daily) was 165% and the “No of insulin expressing beta islets/mouse” value ([3]; with insulin, AGS daily) was 3.5. The “increase” value ([3]; with insulin, AGS daily) was 135%.
With “insulin: insulin (4 units/kg) in HEPES buffer injected every 48 hours [reference compound]” the “circulating glucose levels in control groups” value ([1]; insulin 4 U/Kg every 2 days, STZ-induced diabetic mice, FIG. 2C) was “lowered circulating glucose levels in control groups”, the “Blood Glucose At 101 day” value ([1]; insulin only (4 units/kg every 48 hours), STZ or STZ + vehicle groups) was 700 and the “Blood Glucose At 111 day” value ([1]; insulin only, STZ or STZ + vehicle groups) was 600. For the same compound, the “No of insulin expressing beta islets/mouse” value ([3]; insulin alone (STZ, DMSO)) was 3.25 and the “increase” value ([3]; insulin alone (STZ, DMSO)) was 125%.
